In patent US10022376B2 (Pfizer Inc., priority 2014, dated 2018):
Structures can show the parent of a compound that is named as a salt.

Legend:
[1] = test system: rhIFNγ stimulated STAT-3 phosphorylation in the A549 human epithelial cell line; experiment: A549 Cell Assay: Inhibition of pSTAT3; type: cell-based; conditions: Homo sapiens; A549 cells
Outline: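 Percent inhibition of STAT3 Tyr705 phosphorylation was measured by MSD immunoassay of cell lysates. A549 cells were given compound for 1 h at 37° C (final 0.3 nM to 10 μM, 0.1% DMSO, in 0.2% BSA DMEM), followed by 30 min of rhIFNγ stimulation at 20 ng/mL final. Unstimulated DMSO wells served as background.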

[2] = test system: rhIL-2 stimulated STAT5 phosphorylation in isolated human T cells; experiment: Human T Cell Assay: Inhibition of pSTAT5; type: cell-based
Experimental: Human T Cell Assay: Inhibition of pSTAT5
An assay measuring the efficacy of JAK inhibitors on the functional response of recombinant human interleukin-2 (rhIL-2) stimulated STAT5 phosphorylation in isolated human T cells.
Human whole blood from individual donors was collected from the phlebotomy unit on-site. Peripheral venous blood (30-60 mL) from healthy volunteers of either sex was used as the source of T cells. T cell isolation from venous whole blood is routinely performed in a class II microbiological safety cabinet. Each sample was collected into between 3 and 6 10 mL Sodium Heparin Vacutainer tubes (BD #367874). The blood was poured into sterile 50 mL conicals (Corning #430828) and incubated with the T cell Rosette Sep Cocktail (Stemcell Technologies #15061) at 50 μL/mL antibody/blood ratio for 20 min. with shaking at room temperature. The blood/antibody mixture was then diluted 1:2 with PBS (Pfizer media prep)/2% FBS (Sigma #F4135) and 30 mL of the mixture was layered onto 15 mL Ficoll-Hypaque (GE Healthcare #17-1440-03) in 50 mL conical tubes. The tubes were then centrifuged at 1200×g for 20 min. at room temperature with no brake. Following centrifugation the T cells formed a buffy coat between the Ficoll-Hypaque and plasma layers. The plasma above the buffy coats was removed to within 5 mm of the buffy coat using a sterile Pasteur pipette. The buffy coats were then collected into fresh sterile 50 mL conical tubes containing 25 mL PBS/2% FBS (2 buffy coats per 50 mL conical). PBS/2% FBS was added to the buffy coat cells such that the final volume in the tube was 50 mL. The tubes were then centrifuged at 200×g for 15 min. at room temperature. The supernatant was discarded and the pellet re-suspended in 10-20 mL of DMEM (Pfizer media prep) Assay media/0.2% BSA (Miltenyi #130-091-376). A differential cell count was performed using a haemacytometer and cells were diluted to 1.1×10^6 T cells/ml in DMEM/0.2% BSA media. Compounds (10 mM-0.3 μM) were diluted with Hanks Balanced Salt Solution (HBSS) (Sigma #H6648) at 1:100 dilution. Immediately following cell isolation and compound dilution, 90 μl/well of T cells (˜1×10^6/ml) in assay medium (DMEM+0.2% BSA) was added to the VWR Deep well V bottom plate (#3906-520-300). 10 μl/well of compound (final concentration range of 10 μM-0.3 nM with 0.1% DMSO) or 0.1% DMSO in HBSS as controls was added to the appropriate wells. Plates were incubated for 1 hour at 37° C., 5% CO2 incubator. 10 μl of 3.3 μg/mL rhIL-2 (R&D Systems #202-IL) was added to the cells (300 ng/ml final assay concentration). Wells containing T cells, medium with 0.1% DMSO and no rhIL-2 were used as background controls. Plates were incubated for 15 min at 37° C. After rhIL-2 stimulation, 800 μL of cold PBS/0.1% BSA was added and the plates were centrifuged at 1400 rpm for 5 min at 4° C. Supernatant was aspirated and 100 μL of ice-cold MSD lysis buffer containing protease and phosphatase inhibitors from Phospho-STAT5a/b Tyr694 assay kit (Meso-Scale Discovery #K150IGD) was added to the cell pellet. Plates were shaken for 30 min. at 4° C. and then frozen overnight. The following day, cell lysates were assayed using the MSD ELISA kit protocol for detection of pSTAT5.
Data were collected and transformed into percent inhibition and calculated using the following formula: […]

Structure (SMILES) | IC50 [1] | IC50 [2]
CCc1cc(O)c(F)cc1-c1cc2[nH]nc(C(=O)Nc3ccc(C)nc3)c2c(NCc2ccccc2N(C)S(C)(=O)=O)n1 [Example 56, 6-(2-ethyl-5-fluoro-4-hydroxyphenyl)-4-({2-[methyl(methylsulfonyl)amino]benzyl}amino)-N-(6-methylpyridin-3-yl)-1H-pyrazolo[4,3-c]pyridine-3-carboxamide] | 277 nM | 53.4 nM
Cc1ccc(NC(=O)c2n[nH]c3cc(-c4cc(F)c(O)cc4CC(F)(F)F)nc(NCc4ccccc4N(C)S(C)(=O)=O)c23)cn1 [Example 76, 6-[5-Fluoro-4-hydroxy-2-(2,2,2-trifluoroethyl)phenyl]-4-({2-[methyl(methylsulfonyl)amino]-benzyl}amino)-N-(6-methylpyridin-3-yl)-1H-pyrazolo[4,3-c]pyridine-3-carboxamide] | 325 nM | 121 nM
CN(c1ccccc1CNc1nc(-c2cc(F)c(O)cc2CC(F)(F)F)cc2[nH]nc(C(N)=O)c12)S(C)(=O)=O [Example 77, 6-[5-Fluoro-4-hydroxy-2-(2,2,2-trifluoroethyl)phenyl]-4-({2-[methyl(methylsulfonyl)amino]benzyl}amino)-1H-pyrazolo[4,3-c]pyridine-3-carboxamide] | 32.9 nM | 59.9 nM
CN(c1ccc(O)cc1CNc1nc(-c2cc(F)c(O)cc2CC(F)(F)F)cc2[nH]nc(C(N)=O)c12)S(C)(=O)=O [Example 92, 6-[5-Fluoro-4-hydroxy-2-(2,2,2-trifluoroethyl)phenyl]-4-({5-hydroxy-2-[methyl(methylsulfonyl)amino]benzyl}amino)-1H-pyrazolo[4,3-c]pyridine-3-carboxamide] | 398 nM | 343 nM
CCc1cc(O)c(F)cc1-c1nc(NCc2ccccc2N(C)S(C)(=O)=O)c2c(C(=O)NC)n[nH]c2n1 [Example 93, 6-(2-Ethyl-5-fluoro-4-hydroxyphenyl)-N-methyl-4-((2-(N-methylmethylsulfonamido)benzyl)amino)-1H-pyrazolo[3,4-d]pyrimidine-3-carboxamide] | 31.9 nM | 40.4 nM
CN(c1ccccc1CNc1nc(-c2cc(F)c(O)cc2CC(F)(F)F)nc2[nH]nc(C(N)=O)c12)S(C)(=O)=O [Example 98, 6-(5-Fluoro-4-hydroxy-2-(2,2,2-trifluoroethyl)phenyl)-4-((2-(N-methylmethylsulfonamido)benzyl)amino)-1H-pyrazolo[3,4-d]pyrimidine-3-carboxamide] | 724 nM | 324 nM
CCc1cc(O)c(F)cc1-c1cc2[nH]ncc2c(N(C)Cc2ccccc2N(CC)S(C)(=O)=O)n1 [Example 145, N-Ethyl-N-[2-({[6-(2-ethyl-5-fluoro-4-hydroxyphenyl)-1H-pyrazolo[4,3-c]pyridin-4-yl](methyl)amino}methyl)phenyl]methanesulfonamide hydrochloride] | 15.7 nM | 157 nM
CCc1cc(O)c(F)cc1-c1cc2[nH]nc(-c3nnc(C)[nH]3)c2c(NCc2ccccc2N(C)S(C)(=O)=O)n1 [Example 165, N-[2-({[6-(2-Ethyl-5-fluoro-4-hydroxyphenyl)-3-(5-methyl-4H-1,2,4-triazol-3-yl)-1H-pyrazolo[4,3-c]pyridin-4-yl]amino}methyl)phenyl]-N-methylmethanesulfonamide] | 567 nM | 91.3 nM
Cc1ccc(-c2nnc(-c3n[nH]c4cc(-c5cc(F)c(O)cc5CC(F)(F)F)nc(NCc5ccccc5N(C)S(C)(=O)=O)c34)[nH]2)cn1 [Example 166, N-{2-[({6-[5-Fluoro-4-hydroxy-2-(2,2,2-trifluoroethyl)phenyl]-3-[5-(6-methylpyridin-3-yl)-4H-1,2,4-triazol-3-yl]-1H-pyrazolo[4,3-c]pyridin-4-yl}amino)methyl]phenyl}-N-methylmethanesulfonamide] | 697 nM | 591 nM
CC(=O)N1CCc2[nH]c(-c3n[nH]c4nc(-c5cc(F)c(O)cc5CC(F)(F)F)nc(NCc5cc(O)ccc5N(C)S(C)(=O)=O)c34)nc2C1 [Example 170, N-{2-[({3-(5-Acetyl-4,5,6,7-tetrahydro-1H-imidazo[4,5-c]pyridin-2-yl)-6-[5-fluoro-4-hydroxy-2-(2,2,2-trifluoroethyl)phenyl]-1H-pyrazolo[3,4-d]pyrimidin-4-yl}amino)methyl]-4-hydroxyphenyl}-N-methylmethanesulfonamide] | 1360 nM | 767 nM

Continued, values first:

IC50 [1] | IC50 [2] | Structure (SMILES)
11.9 nM | 20.2 nM | CCc1cc(O)c(F)cc1-c1cc2[nH]nc(C(=O)NC)c2c(NCc2ccccc2N(C)S(C)(=O)=O)n1 [Example 19, 6-(2-ethyl-5-fluoro-4-hydroxyphenyl)-N-methyl-4-({2-[methyl(methylsulfonyl)amino]benzyl}amino)-1H-pyrazolo[4,3-c]pyridine-3-carboxamide]
74 nM | 48.2 nM | CCc1cc(O)c(F)cc1-c1cc2[nH]nc(C(=O)NC)c2c(NCc2cc(O)ccc2N(C)S(C)(=O)=O)n1 [Example 31, 6-(2-Ethyl-5-fluoro-4-hydroxyphenyl)-4-({5-hydroxy-2-[methyl (methylsulfonyl)amino]benzyl}amino)-N-methyl-1H-pyrazolo[4,3-c]pyridine-3-carboxamide]
7.4 nM | 24.3 nM | CCc1cc(O)c(F)cc1-c1cc2[nH]ncc2c(NCc2ccccc2N(C)S(C)(=O)=O)n1 [Example 131, N-[2-({[6-(2-Ethyl-5-fluoro-4-hydroxyphenyl)-1H-pyrazolo[4,3-c]pyridin-4-yl]amino}methyl)phenyl]-N-methylmethanesulfonamide]
256 nM | 206 nM | CCc1cc(O)c(F)cc1-c1cc2[nH]ncc2c(NCc2cc(C)ccc2N(C)S(C)(=O)=O)n1 [Example 132, N-[2-({[6-(2-ethyl-5-fluoro-4-hydroxyphenyl)-1H-pyrazolo[4,3-c]pyridin-4-yl]amino}methyl)-4-methylphenyl]-N-methylmethanesulfonamide hydrochloride]
10.1 nM | 34.7 nM | CCc1cc(O)c(F)cc1-c1cc2[nH]ncc2c(NCc2cc(Cl)ccc2N(C)S(C)(=O)=O)n1 [Example 133, N-[4-chloro-2-({[6-(2-ethyl-5-fluoro-4-hydroxyphenyl)-1H-pyrazolo[4,3-c]pyridin-4-yl]amino}methyl)phenyl]-N-methylmethanesulfonamide hydrochloride]
– | 259 nM | CCc1cc(O)c(F)cc1-c1cc2[nH]ncc2c(NCc2c(F)cccc2N(C)S(C)(=O)=O)n1 [Example 134, N-[2-({[6-(2-ethyl-5-fluoro-4-hydroxyphenyl)-1H-pyrazolo[4,3-c]pyridin-4-yl]amino}methyl)-3-fluorophenyl]-N-methylmethanesulfonamide hydrochloride]
7.6 nM | 62.3 nM | CCc1cc(O)c(F)cc1-c1cc2[nH]ncc2c(N(C)Cc2ccccc2N(C)S(C)(=O)=O)n1 [Example 146, N-[2-({[6-(2-Ethyl-5-fluoro-4-hydroxyphenyl)-1H-pyrazolo[4,3-c]pyridin-4-yl](methyl)amino}methyl)phenyl]-N-methylmethanesulfonamide hydrochloride]
